Read-outs that look alike come from different tables or passages of the source. Where no end group is shown, it is not given here.
Legend:
Assay type in all cases: biochemical
[1] = biological target: T1, Human DPP3 variant R669M (Homo sapiens, UniProt Q9NY33, R669M); test: Inhibition of DPP III catalyzed hydrolysis of Arg2-2NA, R669M variant
T1 construct: made in house; host or cells: E. coli
T1 sequence (Q9NY33 1-737 R669M): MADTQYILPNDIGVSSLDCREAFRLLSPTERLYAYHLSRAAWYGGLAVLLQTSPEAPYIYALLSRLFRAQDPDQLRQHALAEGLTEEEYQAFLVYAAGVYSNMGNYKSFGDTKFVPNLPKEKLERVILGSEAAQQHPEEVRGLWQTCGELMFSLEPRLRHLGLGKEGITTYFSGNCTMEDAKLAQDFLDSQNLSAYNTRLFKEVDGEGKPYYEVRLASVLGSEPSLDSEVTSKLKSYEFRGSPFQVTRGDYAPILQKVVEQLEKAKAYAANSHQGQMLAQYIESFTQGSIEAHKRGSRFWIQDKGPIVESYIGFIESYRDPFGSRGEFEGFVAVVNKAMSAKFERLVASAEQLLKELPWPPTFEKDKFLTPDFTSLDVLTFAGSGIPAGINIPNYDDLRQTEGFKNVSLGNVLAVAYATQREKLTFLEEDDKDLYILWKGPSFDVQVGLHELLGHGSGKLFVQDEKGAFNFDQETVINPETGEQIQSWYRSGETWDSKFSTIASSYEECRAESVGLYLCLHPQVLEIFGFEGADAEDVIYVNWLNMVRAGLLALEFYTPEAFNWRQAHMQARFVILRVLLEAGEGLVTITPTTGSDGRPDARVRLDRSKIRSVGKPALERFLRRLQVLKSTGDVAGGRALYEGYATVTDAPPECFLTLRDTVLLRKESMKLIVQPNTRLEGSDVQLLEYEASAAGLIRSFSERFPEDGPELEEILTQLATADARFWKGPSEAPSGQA
Description: (§1) Human DPP3 wild-type (WT) and variants R669A and R669M were expressed in E. coli and purified using IMAC, as described in detail recently. Briefly, variants were prepared using a QuikChange II site-directed mutagenesis kit (Agilent Technologies, Santa Clara, CA, USA) while following the manufacturer’s instructions, with the hDPP3 gene on a pET21a plasmid as template. Complementary primer pairs were ordered from Macrogen Europe (The Netherlands) with the following sequences:
(§2) Proteins were expressed in E. coli for approximately 20 h at 18 °C, shaken at 120 rpm, and paired with 0.25 mM IPTG as an expression inductor. Cell pellets were lysed with lysosyme and with sonication; the lysate was then purified with DNAse I and through centrifugation, and affinity chromatography was performed on a Rotigarose His/Ni column. Lysis, wash, and elution buffers contained imidazole at concentrations of 10 mM, 20 mM, and 300 mM, respectively, and all buffers contained 50 mM Tris pH = 8.0, 300 mM NaCl. Fractions were pooled based on protein concentration (determined by using a BioDrop microvolume spectrophotometer) and purity (assessed by SDS-PAGE), and they were desalted on a PD-10 column with 20 mM Tris-Cl buffer, pH = 7.5. Aliquots were frozen and stored at −80 °C.
(§3) Enzyme kinetics were measured using an Agilent Cary Eclipse fluorescence spectrophotometer (Agilent Technologies, Santa Clara, CA, USA) with Arg2-2NA as a substrate analog and fluorescent 2NA as the product of the peptidase reaction. The assay has been described in detail previously. Arg2-2NA and peptide in 20 mM Tris-Cl buffer pH = 7.4 were pre-incubated at 25 °C for 2 min before the reaction was started by adding the enzyme into the cuvette. Substrate concentrations ranged from 0.25 to 100 μM. The peptide (inhibitor) concentrations were chosen so the output could be easily measured. […] Three peptide concentrations were used for each peptide. The enzyme concentration was 1 nM in all measurements.

[2] = biological target: T2, Human DPP3 wild-type (WT) (Homo sapiens, UniProt Q9NY33); test: Inhibition of DPP III catalyzed hydrolysis of Arg2-2NA, wild-type enzyme
T2 construct: made in house; host or cells: E. coli
T2 sequence (Q9NY33 1-737): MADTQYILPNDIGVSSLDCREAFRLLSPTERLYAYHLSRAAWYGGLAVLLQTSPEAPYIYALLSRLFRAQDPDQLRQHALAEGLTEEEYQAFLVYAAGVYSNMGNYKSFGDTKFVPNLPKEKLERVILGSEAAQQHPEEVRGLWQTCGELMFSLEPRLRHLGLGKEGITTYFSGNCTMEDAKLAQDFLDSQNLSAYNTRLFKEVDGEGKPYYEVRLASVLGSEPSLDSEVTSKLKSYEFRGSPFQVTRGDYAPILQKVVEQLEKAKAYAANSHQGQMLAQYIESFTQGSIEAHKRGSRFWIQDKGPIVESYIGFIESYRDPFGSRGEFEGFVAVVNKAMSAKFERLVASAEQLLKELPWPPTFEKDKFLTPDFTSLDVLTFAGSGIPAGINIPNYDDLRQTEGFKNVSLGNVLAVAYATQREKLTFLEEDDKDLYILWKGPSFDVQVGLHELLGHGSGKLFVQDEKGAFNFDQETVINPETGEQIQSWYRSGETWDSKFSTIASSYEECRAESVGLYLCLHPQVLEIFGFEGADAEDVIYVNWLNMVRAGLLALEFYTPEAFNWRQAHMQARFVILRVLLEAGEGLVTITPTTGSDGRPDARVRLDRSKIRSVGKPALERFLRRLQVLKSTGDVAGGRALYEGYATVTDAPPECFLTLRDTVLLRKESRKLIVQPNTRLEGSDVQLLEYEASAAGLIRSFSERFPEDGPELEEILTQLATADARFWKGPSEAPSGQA
Description: as §1, §2, §3

[3] = biological target: T3, Human DPP3 variant R669A (Homo sapiens, UniProt Q9NY33, R669A); test: Inhibition of DPP III catalyzed hydrolysis of Arg2-2NA, R669A variant
T3 construct: made in house; host or cells: E. coli
T3 sequence (Q9NY33 1-737 R669A): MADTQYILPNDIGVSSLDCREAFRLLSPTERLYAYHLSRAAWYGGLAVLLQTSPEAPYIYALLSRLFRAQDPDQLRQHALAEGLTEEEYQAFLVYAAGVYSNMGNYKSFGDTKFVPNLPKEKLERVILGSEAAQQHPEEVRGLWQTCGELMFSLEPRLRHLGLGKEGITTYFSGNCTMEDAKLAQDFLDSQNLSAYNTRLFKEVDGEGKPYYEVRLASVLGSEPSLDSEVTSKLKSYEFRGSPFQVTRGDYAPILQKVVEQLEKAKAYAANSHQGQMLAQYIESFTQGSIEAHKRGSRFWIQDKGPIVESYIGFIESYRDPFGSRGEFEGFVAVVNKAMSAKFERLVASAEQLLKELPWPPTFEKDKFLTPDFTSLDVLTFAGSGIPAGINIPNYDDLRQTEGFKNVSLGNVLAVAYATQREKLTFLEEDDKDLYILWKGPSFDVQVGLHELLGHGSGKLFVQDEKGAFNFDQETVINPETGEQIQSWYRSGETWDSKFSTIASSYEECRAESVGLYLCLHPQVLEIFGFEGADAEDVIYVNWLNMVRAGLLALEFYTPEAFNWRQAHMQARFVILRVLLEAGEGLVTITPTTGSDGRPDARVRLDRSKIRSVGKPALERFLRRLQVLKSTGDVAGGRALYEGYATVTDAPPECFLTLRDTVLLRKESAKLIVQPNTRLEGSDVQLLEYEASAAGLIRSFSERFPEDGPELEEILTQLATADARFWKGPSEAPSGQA
Description: as §1, §2, §3

[4] = biological target: T2, Human DPP3 wild-type (WT); test: Michaelis–Menten test for the hydrolysis of Arg2-2NA, wild-type enzyme; details: enzyme 1 nM, 20 mM Tris-Cl pH 7.4, 25 °C, best fit ± standard error
Description: as §1
as §2, with “Lysis, wash, and elution buffers contained imidazole at concentrations of 10 mM, 20 mM, and 300 mM, respectively, and all buffers contained 50 mM Tris pH = 8.0, 300 mM NaCl.” left out, “Aliquots were frozen and stored at −80 °C.” left out
(§4) Enzyme kinetics were measured using an Agilent Cary Eclipse fluorescence spectrophotometer (Agilent Technologies, Santa Clara, CA, USA) with Arg2-2NA as a substrate analog and fluorescent 2NA as the product of the peptidase reaction. […] The peptide (inhibitor) concentrations were chosen so the output could be easily measured. […]

[5] = biological target: T1, Human DPP3 variant R669M; test: Michaelis–Menten test for the hydrolysis of Arg2-2NA, R669M variant; details: enzyme 1 nM, 20 mM Tris-Cl pH 7.4, 25 °C, best fit ± standard error
Description: as §1
as §2, with “Lysis, wash, and elution buffers contained imidazole at concentrations of 10 mM, 20 mM, and 300 mM, respectively, and all buffers contained 50 mM Tris pH = 8.0, 300 mM NaCl.” left out, “Aliquots were frozen and stored at −80 °C.” left out
as §4

[6] = biological target: T3, Human DPP3 variant R669A; test: Michaelis–Menten test for the hydrolysis of Arg2-2NA, R669A variant; details: enzyme 1 nM, 20 mM Tris-Cl pH 7.4, 25 °C, best fit ± standard error
Description: as §1
as §2, with “Lysis, wash, and elution buffers contained imidazole at concentrations of 10 mM, 20 mM, and 300 mM, respectively, and all buffers contained 50 mM Tris pH = 8.0, 300 mM NaCl.” left out, “Aliquots were frozen and stored at −80 °C.” left out
as §4

[7] = substrate 0.25–100 μM, fluorescence of 2NA

Compound	Ki [1] [µM]	effects of the R669M and R669A mutations on the Ki ([1]; R669M versus R669A)	Ki [2] [µM]	Ki [3] [µM]	kcat [4] [s⁻¹]	Km [4, 7] [µM]	kcat [5] [s⁻¹]	Km [5, 7] [µM]	kcat [6] [s⁻¹]	Km [6, 7] [µM]	effect of mutation of R669 to Ala or Met on inhibitory properties / binding ([3]; R669A or R669M versus WT, inhibitory assays)	Ki ([1]; R669M hDPP III 1 nM, substrate Arg2-2NA 0.25–100 μM, 20 mM Tris-Cl pH 7.4, 25 °C, 2 min pre-incubation, fluorescence of 2NA, competitive inhibition, best fit ± standard error, tynorphin 1–5 μM, valorphin 0.75–11.2 μM) [µM]	Ki ([2]; WT hDPP III 1 nM, substrate Arg2-2NA 0.25–100 μM, 20 mM Tris-Cl pH 7.4, 25 °C, 2 min pre-incubation, fluorescence of 2NA, competitive inhibition, best fit ± standard error, inhibitor tynorphin 1–50 nM, valorphin 15–150 nM) [µM]
CC(C)C[C@H](NC(=O)[C@H](Cc1ccccc1)NC(=O)CNC(=O)CNC(=O)[C@@H](N)Cc1ccc(O)cc1)C(=O)O [Leu-enkephalin]	58 ± 7	the same	10.4 ± 1.4	52 ± 5.3									
Arg2-2NA					3.74 ± 0.07	7.8 ± 0.6	2.26 ± 0.03	2.8 ± 0.2	2.24 ± 0.05	3.4 ± 0.3	small		
VVYPW [tynorphin]				0.328 ± 0.025								0.102 ± 0.016	0.0112 ± 0.0008

Source: PMC9967118, “Influence of Mutations of Conserved Arginines on Neuropeptide Binding in the DPP III Active Site” (Molecules, 2023)
